The values below come from paper PMC2654417 (Combinatorial chemistry & high throughput screening, 2008).

Where two headings read alike, the source gives them in different places.

Assay [1] deals with T1, glucocorticoid receptor (GR) (Homo sapiens, UniProt P04150).
T1 sequence (P04150 1-777): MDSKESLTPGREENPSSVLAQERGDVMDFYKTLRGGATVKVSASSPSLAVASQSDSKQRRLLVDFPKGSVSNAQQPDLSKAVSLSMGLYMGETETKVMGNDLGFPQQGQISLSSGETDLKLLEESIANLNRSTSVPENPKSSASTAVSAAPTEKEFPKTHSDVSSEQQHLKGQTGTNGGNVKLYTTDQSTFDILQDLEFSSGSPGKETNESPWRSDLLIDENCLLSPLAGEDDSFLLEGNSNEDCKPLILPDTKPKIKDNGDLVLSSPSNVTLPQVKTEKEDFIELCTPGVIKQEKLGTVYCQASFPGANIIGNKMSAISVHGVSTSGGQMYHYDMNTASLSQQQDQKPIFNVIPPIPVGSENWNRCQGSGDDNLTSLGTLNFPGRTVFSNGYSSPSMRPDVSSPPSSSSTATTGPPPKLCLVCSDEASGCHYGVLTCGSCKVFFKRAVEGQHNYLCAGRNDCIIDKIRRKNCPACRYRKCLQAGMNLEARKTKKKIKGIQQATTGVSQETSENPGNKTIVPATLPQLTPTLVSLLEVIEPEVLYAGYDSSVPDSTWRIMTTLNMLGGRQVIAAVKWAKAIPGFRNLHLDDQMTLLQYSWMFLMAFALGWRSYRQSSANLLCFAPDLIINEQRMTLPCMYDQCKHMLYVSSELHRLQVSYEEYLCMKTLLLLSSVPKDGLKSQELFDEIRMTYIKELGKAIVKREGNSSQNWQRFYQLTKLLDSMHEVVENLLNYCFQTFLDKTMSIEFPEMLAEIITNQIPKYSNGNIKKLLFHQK
Kind of assay: GR-EFC nuclear translocation assay. It is filed as cell-based. As to conditions: for qHTS Hill Slope: Hill slope of the qHTS curve fit; for qHTS Max Activity: maximal activity of the qHTS curve, inactive threshold […] (3σ). In general terms: Quantitative high-throughput screening tests each substance at several concentrations.

The target in assay [2] is T1, glucocorticoid receptor (GR). As to conditions: GR-rich cell extract; cited from earlier work.
Setting [3] is: read-out: qEC50, qHTS curve fit, class 4 values are fit defaults.

`C[C@]12C[C@H](O)[C@H]3[C@@H](CCC4=CC(=O)CC[C@@]43C)[C@@H]1CC[C@@H]2C(=O)CO` [Corticosterone, reference compound] had an EC50 in assay [1] of 0.036 µM. The “IC50/Kd [3H]dex binding assay” value in assay [2] is 0.048 [39] μM.

For the compound `C=C(C)[C@H]1CC[C@]2(CO)CC[C@]3(C)[C@@H](CC[C@H]4[C@@]5(C)CC[C@@H](O)C(C)(C)[C@@H]5CC[C@@]43C)[C@H]12` [NCGC00016450-01], in assay [1], the “qHTS Curve Class” value was 4 (inactive, where activity was below 28.6% (3σ for the present assay)). The EC50 in assay [1] (read-out: qEC50) is greater than 9 µM.

As to `C#C[C@@]1(O)CC[C@H]2[C@H]3CCC4=Cc5oncc5C[C@]4(C)[C@@H]3CC[C@@]21C` [NCGC00015375-01], the “qHTS Curve Class” value in assay [1] is 4 (inactive, where activity was below 28.6% (3σ for the present assay)). In addition, the EC50 in assay [1] (read-out: qEC50) was greater than 9 µM.

`CC(=O)O[C@H]1CC[C@@]2(C)C(=CC[C@@H]3[C@@H]2CC[C@]2(C)C(=O)CC[C@@H]32)C1` [NCGC00016544-01]: the EC50 in assay [1] (setting [3]) is greater than 9 µM. Take `C#C[C@]1(O)CC[C@H]2[C@H]3CCC4=Cc5oncc5C[C@]4(C)[C@@H]3CC[C@]21C` [NCGC00024732-01]: the “qHTS Curve Class” value in assay [1] is 4 (inactive, where activity was below 28.6% (3σ for the present assay)). In assay [1] (read-out: qEC50), the EC50 was greater than 9 µM. Regarding `COc1cc2c(cc1O)CC[C@@H]1[C@@H]2CC[C@@]2(C)[C@H](O)CC[C@H]12` [NCGC00015690-01], the EC50 in assay [1] (setting [3]) was greater than 9 µM. Still for that read-out and setting: in the case of `C[C@H](CCC(=O)O)[C@H]1CC[C@H]2[C@@H]3[C@H](O)C[C@@H]4C[C@H](O)CC[C@]4(C)[C@H]3C[C@H](O)[C@]12C` [NCGC00013426-01] it was greater than 9 µM. Turning to `C[C@@H]1C[C@@H]2[C@H]3CCC4=CC(=O)C=C[C@]4(C)[C@]3(Cl)[C@@H](O)C[C@@]2(C)[C@@]1(O)C(=O)CO` [NCGC00015136-01], in assay [1], the “qHTS Hill Slope” value was determined as 0.67 and the “qHTS Max Activity” value was found to be 105.1.

Take `C#C[C@@]1(O)CC[C@@H]2[C@@H]3CCC4=CC(=O)CC[C@@H]4[C@H]3CC[C@]21CC` [NCGC00016540-01]: in assay [1], the “qHTS Curve Class” value was 4 (inactive, where activity was below 28.6% (3σ for the present assay)). In addition, the EC50 in assay [1] (read-out: qEC50) was greater than 9 µM. Consider `CC(=O)O[C@H]1C[C@H]2CC[C@@H]3[C@H]4C[C@@H]([N+]5(C)CCCCC5)[C@@H](OC(C)=O)[C@]4(C)CC[C@@H]3[C@@]2(C)C[C@@H]1[N+]1(C)CCCCC1` [NCGC00024736-01], for which the EC50 in assay [1] (setting [3]) is greater than 9 µM.

`C[C@@]12CC[C@H](O)C[C@@H]1CC[C@H]1[C@H]2C[C@@H](O)[C@]2(C)[C@@H](C3=CC(=O)OC3)CC[C@@]12O` [NCGC00017309-01]: in assay [1] (setting [3]), the EC50 was greater than 9 µM. As to `CC(=O)[C@H]1CC[C@H]2[C@@H]3C[C@H](C)C4=CC(=O)CC[C@]4(C)[C@H]3[C@@H](O)C[C@]12C` [NCGC00016616-01], in assay [1], the “qHTS Hill Slope” value came out at 0.13 and the “qHTS Max Activity” value came to 100.0. Also, the “log qEC50” value in assay [1] (log10 of qEC50 in M, printed as negative values, class 4 values are fit defaults) is −5.381. Moreover, the EC50 in assay [1] (setting [3]) was found to be 4.16 µM.

`CC1(C)[C@@H](O)CC[C@@]2(C)[C@H]1CC[C@]1(C)[C@H]2C(=O)C=C2[C@@H]3C[C@@](C)(C(=O)O)CC[C@]3(C)CC[C@@]21C` [NCGC00017244-01]: the “qHTS Curve Class” value in assay [1] was 4 (inactive, where activity was below 28.6% (3σ for the present assay)). In addition, the EC50 in assay [1] (read-out: qEC50) is greater than 9 µM. Regarding `CC1(C)CC[C@]2(C(=O)O)CC[C@]3(C)C(=CC[C@@H]4[C@@]5(C)CC[C@H](O)C(C)(C)[C@@H]5CC[C@@]43C)[C@@H]2C1` [NCGC00017222-01], the “qHTS Curve Class” value in assay [1] was 4 (inactive, where activity was below 28.6% (3σ for the present assay)). In addition, the EC50 in assay [1] (read-out: qEC50) is greater than 9 µM. `C[C@H](CCC(=O)NCC(=O)O)[C@H]1CC[C@H]2[C@H]3[C@@H](C[C@@H](O)[C@]12C)[C@]1(C)CC[C@H](O)C[C@@H]1C[C@@H]3O` [NCGC00016452-01]: the EC50 in assay [1] (setting [3]) is greater than 9 µM. As for `C#C[C@@]1(O)CC[C@@H]2[C@@H]3CCC4=CC(=O)CC[C@@]4(C)[C@H]3CC[C@]21C` [NCGC00016444-01], in assay [1], the “qHTS Hill Slope” value came to 0.97 and the “qHTS Max Activity” value is listed as 15.2. Turning to `CC(=O)[C@@H]1CC[C@H]2[C@H]3CC[C@H]4C[C@@H](O)CC[C@]4(C)[C@@H]3CC[C@]12C` [NCGC00015853-01], the EC50 in assay [1] (setting [3]) is greater than 9 µM. For `C[C@@H]1O[C@@H](O[C@@H]2C=C3CC[C@@H]4[C@H](CC[C@]5(C)[C@@H](c6ccc(=O)oc6)CC[C@]45O)[C@@]3(C)CC2)[C@H](O)[C@H](O)[C@H]1O` [NCGC00016447-01], the “qHTS Curve Class” value in assay [1] is 4 (inactive, where activity was below 28.6% (3σ for the present assay)). Further, in assay [1] (read-out: qEC50), the EC50 is greater than 9 µM. On to `CCC[C@@H]1CC2=CC(=O)CC[C@]2(C)[C@@H]2CC[C@@]3(C)[C@H](CC[C@]3(O)CCC(=O)O)[C@H]12` [NCGC00025253-01], for which the EC50 in assay [1] (setting [3]) is greater than 9 µM. Same read-out and setting: in the case of `C[C@H](CCC(=O)O)[C@H]1CC[C@@H]2[C@H]3CC[C@H]4C[C@@H](O)CC[C@@]4(C)[C@H]3CC[C@]21C` [NCGC00016445-01] it was greater than 9 µM; in that of `C[C@@]12CC[C@H](O)C[C@@H]1CC[C@H]1[C@@H]2C[C@@H](O)[C@]2(C)[C@@H](C3=CC(=O)OC3)CC[C@]12O` [NCGC00016591-01], greater than 9 µM. For `C[C@H]1[C@H](C)CC[C@@]2(C(=O)O)CC[C@]3(C)C(=CC[C@@H]4[C@@]5(C)CC[C@H](O)C(C)(C)[C@@H]5CC[C@@]43C)[C@@H]12` [NCGC00017223-01], in assay [1], the “qHTS Curve Class” value was 4 (inactive, where activity was below 28.6% (3σ for the present assay)). In addition, in assay [1] (read-out: qEC50), the EC50 was greater than 9 µM.

Consider `C[C@@H]1O[C@H](O[C@@H]2CC[C@@]3(C=O)[C@H]4CC[C@@]5(C)[C@@H](C6=CC(=O)OC6)CC[C@@]5(O)[C@@H]4CC[C@]3(O)C2)C[C@H](O)[C@@H]1O` [NCGC00016524-01], for which the EC50 in assay [1] (setting [3]) is greater than 9 µM. For the compound `CC(=O)O[C@@H]1C[C@]2(C)[C@H](C[C@@H](O)[C@H]3[C@@]4(C)CC[C@@H](O)[C@@H](C)[C@@H]4CC[C@@]32C)/C1=C(\CCC=C(C)C)C(=O)[O-].[Na+]` [NCGC00016148-01], in assay [1], the “qHTS Curve Class” value is 4 (inactive, where activity was below 28.6% (3σ for the present assay)). In addition, the EC50 in assay [1] (read-out: qEC50) is greater than 9 µM. In the case of `C[C@@H]1[C@H](C)CC[C@@]2(C(=O)O)CC[C@]3(C)C(=CC[C@H]4[C@@]5(C)CC[C@@H](O)C(C)(C)[C@@H]5CC[C@@]43C)[C@@H]12` [NCGC00016318-01], the “qHTS Curve Class” value in assay [1] was 4 (inactive, where activity was below 28.6% (3σ for the present assay)). Further, the EC50 in assay [1] (read-out: qEC50) was greater than 9 µM. Consider `COc1cc2c(cc1O)CCC1C2CC[C@@]2(C)C1CC[C@@H]2O` (stereo partly drawn) [NCGC00025300-01], for which the EC50 in assay [1] (setting [3]) is greater than 9 µM.

Take `CCC(=O)O[C@]1(C(=O)SCF)[C@H](C)C[C@H]2[C@@H]3C[C@H](F)C4=CC(=O)C=C[C@]4(C)[C@@]3(F)[C@@H](O)C[C@@]21C` [NCGC00016943-01]: in assay [1], the “qHTS Hill Slope” value worked out at 1.50 and the “qHTS Max Activity” value stood at 115.3.

Consider `CC(=O)C1(O)CCC2C3CCC4=CC(=O)CCC4(C)C3CCC21C` (stereo not drawn) [17α-hydroxyprogesterone, reference compound], for which the EC50 in assay [1] turned out to be 2.87 µM.
